Measurements published in patent US10800758B2, “Pyrimidine compound” (OTSUKA PHARMACEUTICAL CO., LTD., priority 2017, dated 2020).

What was measured:
Assay type in all cases: in vivo
[1] = system: ICR mice; assay: Subcutaneous pentylenetetrazole (scPTZ) model; details: Mus musculus; male ICR mice, 30 mg/kg oral, 85 mg/kg pentylenetetrazole s.c. after 1 hour, evaluated for 30 minutes; read-out: rate of suppression against clonic convulsions
Protocol: This test is performed to evaluate the anticonvulsant activity of the compound as in Test Example 2. Unlike the phenotype of Test Example 2, the animal model used in this test is a phenotype model of generalized absence seizure and myoclonic seizure.
The test compound was suspended in 5% gum arabic/distilled water (w/v), and administered by forced oral administration to male ICR mice (Japan SLC, Inc., 5 to 6 weeks old, 10 per group) at a dose of 30 mg/kg. After 1 hour, 85 mg/kg of pentylenetetrazole dissolved in saline was administered subcutaneously, and the occurrence of clonic convulsions was evaluated for 30 minutes.

[2] = system: ICR mice; assay: Maximal electroshock seizure (MES) model; details: Mus musculus; male ICR mice, 30 mg/kg oral, electrical stimulation (30 mA, 100 Hz, 0.2 second) 1 hour after administration; read-out: rate of seizure suppression (tonic hindlimb extension seizure)
Protocol: This test is performed to evaluate the anticonvulsant activity of the compound. The mouse model used in this test is a phenotype model of generalized tonic-clonic seizure and secondary generalized partial seizure. This test was performed in accordance with the report of AJ Hill et al (Br J Pharmacol. 2012 December; 167(8): 1629-42. Cannabidivarin is anticonvulsant in mouse and rat, Hill A J, et al.).
The test compound was suspended in 5% gum arabic/distilled water (w/v), and administered by forced oral administration to male ICR mice (Japan SLC, Inc., 5 to 6 weeks old, 8 per group) at a dose of 30 mg/kg. After one hour of the oral administration of the test compound, the mice were stimulated by an application of electrical current (30 mA, 100 Hz, 0.2 second) through auricular electrodes using an electroconvulsive device (UGO BASILE SRL). Then, the incidence of tonic hindlimb extension seizure was recorded. In this test, tonic hindlimb extension seizures were induced in all mice of the solvent administration group, but the rate of seizure suppression was 75% or more with the example compounds 1, 2, 3, 5, 8, 10, 12, 13, 14, 16, 18, 22, 26, 28, 30, 31, 38, 42, 47, 48 and 54, and the suppression rate was 50% or more with the example compounds 4, 6, 9, 11, 23, 41 and 45.

[3] = system: DBA/2 mice; assay: Audiogenic seizure model; details: Mus musculus; male and female DBA/2 mice, 30 mg/kg oral, auditory stimulation 1 hour after administration; read-out: Seizure suppression rate (%)
Protocol: The animal model used in this test is a phenotype model for partial seizure (including secondary generalized seizure) and generalized tonic-clonic seizure, and has high clinical predictability. This test was performed in accordance with the report of De Sarro et al (Br J Pharmacol. 1988 February; 93(2): 247-56. Anticonvulsant effects of some calcium entry blockers in DBA/2 mice. De Sarro G B, Meldrum B S, Nistico G.).
In this test example, the example compounds shown in Table 3 below were used as test compounds. The following compound (compound of Example 5 of WO 2004/009559), which is the most similar compound when the substituent position is taken into consideration, was used as a comparative example compound.
The test compounds were suspended in 5% gum arabic/distilled water (w/v), and administered by forced oral administration to male and female DBA/2 mice (Japan SLC, Inc., 3 weeks old, 8 per group) at a dose of 30 mg/kg. After one hour of the oral administration of the test compound, each mouse was placed in a transparent acrylic cylinder 30 cm high and 23 cm in diameter, and 30 seconds were allowed for habituation. Then, they were exposed to auditory stimulation (12.6 kHz, 100-110 dB) for 1 minute or until a tonic seizure occurred.
The seizure response was assessed using the following scale, 0: no seizure, 1: wild running, 2: clonic seizure, 3: tonic seizure and 4: respiratory arrest. The maximum response was recorded as the seizure severity score.
The seizure suppression rate for each compound administration group was calculated according to the following formula.

Compound	responders at 30 mg/kg [1]	responders at 30 mg/kg [2]	inhibition in vivo at 30 mg/kg [3]
O=C1CCN(c2cnc(Oc3cccc(SC(F)(F)F)c3)nc2)C(=O)N1 [Example 23]	≥ 75%	≥ 50%	100%
CN1C(=O)CCN(c2cnc(Oc3cccc(F)c3)nc2)C1=O [Example 5, 1-[2-(3-Fluorophenoxy)pyrimidin-5-yl]-3-methyl-5,6-dihydropyrimidine-2,4(1H,3H)-dione]	≥ 75%	≥ 75%	100%
COc1nc(Oc2ccccc2F)ncc1N1CCC(=O)NC1=O [Example 47]		≥ 75%	87%
Cc1cc(C)cc(Oc2ncc(N3CCC(=O)NC3=O)cn2)c1 [Example 37]			77%
COc1nc(Oc2c(F)cccc2F)ncc1N1CCC(=O)NC1=O [Example 52]			93%
O=C1CCN(c2cnc(Sc3ccccc3)nc2)C(=O)N1 [Example 8, 1-[2-(Phenylthio)pyrimidin-5-yl]-5,6-dihydropyrimidine-2,4(1H,3H)-dione]		≥ 75%	100%
O=C1CCN(c2cnc(Oc3ccc(F)c(F)c3)nc2)C(=O)N1 [Example 15]			83%
O=C1CCN(c2cnc(Oc3ccccc3)nc2)C(=O)N1 [Example 1, 1-(2-Phenoxypyrimidin-5-yl)-5,6-dihydropyrimidine-2,4(1H,3H)-dione]	≥ 75%	≥ 75%	100%
O=C1CCN(c2cnc(Sc3cccc(F)c3)nc2)C(=O)N1 [Example 31]		≥ 75%	79%
O=C1CCN(c2cnc(Oc3cccc(S(F)(F)(F)(F)F)c3)nc2)C(=O)N1 [Example 24]			90%
COc1nc(Oc2cccc(F)c2)ncc1N1CCC(=O)NC1=O [Example 42]	≥ 50%	≥ 75%	96%
COc1nc(Oc2ccccc2)ncc1N1CCC(=O)NC1=O [Example 18]		≥ 75%	100%
O=C1CCN(c2cnc(Oc3cccc(C(F)(F)F)c3)nc2)C(=O)N1 [Example 9]		≥ 50%	94%
Cc1cccc(Oc2ncc(N3CCC(=O)NC3=O)cn2)c1 [Example 22]	≥ 75%	≥ 75%	100%
COc1cccc(Oc2ncc(N3CCC(=O)NC3=O)cn2)c1 [Example 21]			93%
O=C1CCN(c2cnc(Oc3cccc(OC(F)(F)F)c3)nc2)C(=O)N1 [Example 10]		≥ 75%	86%
COc1nc(Oc2ccc(F)cc2)ncc1N1CCC(=O)NC1=O [Example 48]		≥ 75%	96%
O=c1ccn(-c2cnc(Oc3cccc(F)c3)nc2)c(=O)[nH]1 [Example 41]	≥ 50%	≥ 50%	96%
COc1nc(Oc2ccc(F)cc2F)ncc1N1CCC(=O)NC1=O [Example 53]			83%
O=C1CCN(c2cnc(Oc3cccc(Br)c3)nc2)C(=O)N1 [Example 44]	≥ 50%		85%
O=C1CCN(c2cnc(Oc3ccc(F)cc3F)nc2)C(=O)N1 [Example 12]	≥ 50%	≥ 75%	96%
